Experimental data published in patent publication US10442815B2, “Tricyclic heterocyclic compounds as phosphoinositide 3-kinase inhibitors” (Karus Therapeutics Limited, priority 2015, dated 2019).

Key:
[1] = Plasma PK of comparative compound without sulfur moiety in male CD1 mice; assay type: in vivo, mouse; conditions: Mesylate Salt
Experimental: Formulation: 10% DMSO, 90% Saline
Dosing: 10 mg/kg P.O. and 5 mg/kg I.V.

PI3K p110α [2] = biological target: T1, PI3K p110α (Homo sapiens, UniProt P42336); assay: IC50 determination, HTRF biochemical assay (Reaction Biology Corp.)
T1 construct: assay run at Proqinase GmbH
Source text: (§1) Biochemical activity against class I PI3K isoforms was confirmed by either Ki determination using the non-radiometric ADP-Glo™ assay (Promega, Madison, Wis., USA) at Proqinase GmbH, or IC50 determination using the HTRF biochemical assay at Reaction Biology Corp.

PI3K p110β [3] = biological target: T2, PI3K p110β (Homo sapiens, UniProt P42338); assay: as above
T2 construct: assay run at Proqinase GmbH
Source text: as §1

PI3K p110γ [4] = biological target: T3, PI3K p110γ (Homo sapiens, UniProt P48736); assay: as above
T3 construct: assay run at Proqinase GmbH
Source text: as §1

PI3K p110δ [5] = biological target: T4, PI3K p110δ (Homo sapiens, UniProt O00329); assay: as above
T4 construct: assay run at Proqinase GmbH
Source text: as §1

PI3K p110α [6] = biological target: T1, PI3K p110α; assay: Ki determination, non-radiometric ADP-Glo assay (Proqinase GmbH); assay type: biochemical
Source text: as §1

PI3K p110β [7] = biological target: T2, PI3K p110β; assay: as above; assay type: biochemical
Source text: as §1

PI3K p110γ [8] = biological target: T3, PI3K p110γ; assay: as above; assay type: biochemical
Source text: as §1

PI3K p110δ [9] = biological target: T4, PI3K p110δ; assay: as above; assay type: biochemical
Source text: as §1

[10] = Plasma PK of Example B, oral bioavailability and clearance in male Balb/c mice; assay type: in vivo, mouse; conditions: Mesylate Salt
Experimental: Animals in Group 2 were administered with oral solution formulation of Example B in 5% NMP, 5% Solutol HS and 90% of 20% HPβCD at a dose of 10 mg/kg. Dosing: 10 mg/kg P.O. and 3 mg/kg I.V.

[11] = Plasma PK of compound K of WO 2011/021038 in male Balb/c mice; assay type: in vivo, mouse; conditions: for F: PO 10 mg/kg vs IV 3 mg/kg, male Balb/c mouse
Experimental: Animals in Group 1 were administered intravenously with compound K solution formulation in 5% NMP, 5% solutol HS-15 and 90% normal saline via tail vein at a dose of 3 mg/kg.
Animals in Group 2 were administered with oral solution formulation of compound K in 5% NMP, 5% solutol HS-15 and 90% normal saline at a dose of 10 mg/kg;
Dosing: 10 mg/kg P.O. and 3 mg/kg I.V.

[12] = IV, 5 mg/kg, male CD1 mouse plasma
[13] = IV, 3 mg/kg, male Balb/c mouse plasma
[14] = IV, 3 mg/kg, male Balb/c mouse plasma, read-out: Vss
[15] = PO, 10 mg/kg, male Balb/c mouse plasma

T1 sequence (P42336 whole entry): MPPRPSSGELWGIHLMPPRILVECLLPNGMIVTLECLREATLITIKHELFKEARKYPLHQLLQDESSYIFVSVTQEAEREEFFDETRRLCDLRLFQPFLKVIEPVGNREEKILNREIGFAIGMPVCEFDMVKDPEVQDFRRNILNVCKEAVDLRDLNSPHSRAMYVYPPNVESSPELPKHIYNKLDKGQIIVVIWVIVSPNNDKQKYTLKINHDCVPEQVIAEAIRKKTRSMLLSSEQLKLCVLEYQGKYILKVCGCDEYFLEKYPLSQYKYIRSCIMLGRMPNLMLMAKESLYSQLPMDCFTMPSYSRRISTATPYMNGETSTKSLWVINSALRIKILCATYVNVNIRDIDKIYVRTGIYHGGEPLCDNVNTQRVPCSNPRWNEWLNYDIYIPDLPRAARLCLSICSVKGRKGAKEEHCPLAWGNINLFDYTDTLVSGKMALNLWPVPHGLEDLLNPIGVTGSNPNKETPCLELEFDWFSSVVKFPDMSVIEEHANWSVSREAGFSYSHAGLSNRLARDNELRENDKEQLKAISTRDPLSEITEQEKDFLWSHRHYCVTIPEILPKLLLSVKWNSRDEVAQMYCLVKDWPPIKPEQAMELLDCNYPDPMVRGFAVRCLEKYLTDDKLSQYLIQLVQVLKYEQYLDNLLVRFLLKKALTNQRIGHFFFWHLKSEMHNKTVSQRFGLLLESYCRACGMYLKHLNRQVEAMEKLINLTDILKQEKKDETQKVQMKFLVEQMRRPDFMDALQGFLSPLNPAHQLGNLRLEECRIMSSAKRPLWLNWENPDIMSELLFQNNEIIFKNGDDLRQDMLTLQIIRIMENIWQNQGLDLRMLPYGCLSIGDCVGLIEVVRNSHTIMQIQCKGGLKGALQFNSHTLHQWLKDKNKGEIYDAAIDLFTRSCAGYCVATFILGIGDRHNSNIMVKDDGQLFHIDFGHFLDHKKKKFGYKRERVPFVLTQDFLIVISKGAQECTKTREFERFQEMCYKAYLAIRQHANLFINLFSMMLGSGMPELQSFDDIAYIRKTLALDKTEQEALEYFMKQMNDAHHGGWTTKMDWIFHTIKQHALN
T1 sequence (P27986 whole entry partner): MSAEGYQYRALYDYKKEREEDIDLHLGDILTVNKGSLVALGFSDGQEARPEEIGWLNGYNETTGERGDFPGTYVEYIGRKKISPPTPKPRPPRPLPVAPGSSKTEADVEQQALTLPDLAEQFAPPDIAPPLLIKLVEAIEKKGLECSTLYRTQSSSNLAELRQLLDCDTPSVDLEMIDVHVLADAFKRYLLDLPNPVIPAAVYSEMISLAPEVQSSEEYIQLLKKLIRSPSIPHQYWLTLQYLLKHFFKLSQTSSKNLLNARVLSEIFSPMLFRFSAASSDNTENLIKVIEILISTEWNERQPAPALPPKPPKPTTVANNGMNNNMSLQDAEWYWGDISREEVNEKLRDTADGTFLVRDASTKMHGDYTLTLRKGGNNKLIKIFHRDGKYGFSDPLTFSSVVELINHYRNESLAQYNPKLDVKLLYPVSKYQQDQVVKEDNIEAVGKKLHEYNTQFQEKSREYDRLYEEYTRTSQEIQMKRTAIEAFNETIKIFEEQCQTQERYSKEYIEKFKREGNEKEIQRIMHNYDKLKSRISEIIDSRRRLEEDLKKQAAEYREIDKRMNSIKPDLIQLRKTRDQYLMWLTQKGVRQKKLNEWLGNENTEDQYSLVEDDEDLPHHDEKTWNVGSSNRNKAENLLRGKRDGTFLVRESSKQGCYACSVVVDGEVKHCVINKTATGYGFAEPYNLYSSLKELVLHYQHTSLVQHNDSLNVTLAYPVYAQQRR
T3 sequence (P48736 whole entry): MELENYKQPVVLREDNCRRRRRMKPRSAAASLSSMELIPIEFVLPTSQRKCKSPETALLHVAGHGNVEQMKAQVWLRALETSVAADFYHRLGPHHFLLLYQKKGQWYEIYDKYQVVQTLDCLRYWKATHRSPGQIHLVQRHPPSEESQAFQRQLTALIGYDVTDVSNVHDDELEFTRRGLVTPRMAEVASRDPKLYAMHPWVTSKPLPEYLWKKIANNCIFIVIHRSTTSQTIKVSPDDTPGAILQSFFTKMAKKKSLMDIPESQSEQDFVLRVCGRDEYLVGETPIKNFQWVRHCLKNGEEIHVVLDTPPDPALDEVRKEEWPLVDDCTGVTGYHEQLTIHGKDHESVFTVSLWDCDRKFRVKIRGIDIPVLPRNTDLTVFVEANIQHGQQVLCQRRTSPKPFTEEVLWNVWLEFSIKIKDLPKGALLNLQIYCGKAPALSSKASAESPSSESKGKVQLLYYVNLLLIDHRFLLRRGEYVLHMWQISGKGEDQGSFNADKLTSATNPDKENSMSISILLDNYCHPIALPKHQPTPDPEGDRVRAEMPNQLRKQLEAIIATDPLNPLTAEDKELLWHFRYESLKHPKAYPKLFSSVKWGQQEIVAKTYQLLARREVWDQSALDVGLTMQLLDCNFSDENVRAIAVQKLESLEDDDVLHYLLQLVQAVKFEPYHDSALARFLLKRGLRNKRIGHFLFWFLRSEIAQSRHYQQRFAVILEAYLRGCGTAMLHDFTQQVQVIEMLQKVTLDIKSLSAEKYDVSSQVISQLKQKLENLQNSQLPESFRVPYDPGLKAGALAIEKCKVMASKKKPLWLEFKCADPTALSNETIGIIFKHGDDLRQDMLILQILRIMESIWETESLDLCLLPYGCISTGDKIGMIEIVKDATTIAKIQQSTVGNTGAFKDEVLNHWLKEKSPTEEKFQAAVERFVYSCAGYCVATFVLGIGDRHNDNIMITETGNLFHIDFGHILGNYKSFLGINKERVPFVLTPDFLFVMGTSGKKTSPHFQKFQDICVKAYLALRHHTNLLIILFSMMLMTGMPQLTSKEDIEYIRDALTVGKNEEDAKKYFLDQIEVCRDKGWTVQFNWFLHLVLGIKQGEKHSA
T4 sequence (O00329 whole entry): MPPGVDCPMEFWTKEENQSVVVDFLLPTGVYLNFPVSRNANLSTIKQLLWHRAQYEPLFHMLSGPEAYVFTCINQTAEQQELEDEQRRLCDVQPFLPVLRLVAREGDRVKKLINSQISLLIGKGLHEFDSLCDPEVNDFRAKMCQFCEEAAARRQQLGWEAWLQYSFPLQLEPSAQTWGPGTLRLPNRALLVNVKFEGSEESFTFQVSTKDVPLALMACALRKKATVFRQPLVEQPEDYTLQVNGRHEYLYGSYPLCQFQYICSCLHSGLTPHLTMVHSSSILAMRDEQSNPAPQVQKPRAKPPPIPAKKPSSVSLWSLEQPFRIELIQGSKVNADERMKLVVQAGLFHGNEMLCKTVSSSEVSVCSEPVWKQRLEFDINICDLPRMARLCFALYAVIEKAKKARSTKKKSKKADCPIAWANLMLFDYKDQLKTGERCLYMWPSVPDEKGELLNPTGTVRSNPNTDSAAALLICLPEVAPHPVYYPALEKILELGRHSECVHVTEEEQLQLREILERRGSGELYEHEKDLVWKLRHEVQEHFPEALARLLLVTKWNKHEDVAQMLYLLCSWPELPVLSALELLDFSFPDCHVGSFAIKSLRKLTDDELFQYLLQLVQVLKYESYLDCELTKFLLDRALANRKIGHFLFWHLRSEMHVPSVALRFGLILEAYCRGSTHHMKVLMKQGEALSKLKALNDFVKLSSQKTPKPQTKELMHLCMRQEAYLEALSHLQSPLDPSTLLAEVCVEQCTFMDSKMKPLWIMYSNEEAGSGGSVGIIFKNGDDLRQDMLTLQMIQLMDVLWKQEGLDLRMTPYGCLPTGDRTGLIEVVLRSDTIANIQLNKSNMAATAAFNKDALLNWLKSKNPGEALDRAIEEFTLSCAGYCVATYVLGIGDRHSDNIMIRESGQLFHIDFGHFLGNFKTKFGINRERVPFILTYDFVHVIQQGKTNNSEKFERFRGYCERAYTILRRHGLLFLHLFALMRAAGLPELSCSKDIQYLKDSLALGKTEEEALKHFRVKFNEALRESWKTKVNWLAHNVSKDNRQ
T4 sequence (P27986 whole entry partner): as the sequence (P27986 whole entry partner) above
T2 sequence (P42338 whole entry): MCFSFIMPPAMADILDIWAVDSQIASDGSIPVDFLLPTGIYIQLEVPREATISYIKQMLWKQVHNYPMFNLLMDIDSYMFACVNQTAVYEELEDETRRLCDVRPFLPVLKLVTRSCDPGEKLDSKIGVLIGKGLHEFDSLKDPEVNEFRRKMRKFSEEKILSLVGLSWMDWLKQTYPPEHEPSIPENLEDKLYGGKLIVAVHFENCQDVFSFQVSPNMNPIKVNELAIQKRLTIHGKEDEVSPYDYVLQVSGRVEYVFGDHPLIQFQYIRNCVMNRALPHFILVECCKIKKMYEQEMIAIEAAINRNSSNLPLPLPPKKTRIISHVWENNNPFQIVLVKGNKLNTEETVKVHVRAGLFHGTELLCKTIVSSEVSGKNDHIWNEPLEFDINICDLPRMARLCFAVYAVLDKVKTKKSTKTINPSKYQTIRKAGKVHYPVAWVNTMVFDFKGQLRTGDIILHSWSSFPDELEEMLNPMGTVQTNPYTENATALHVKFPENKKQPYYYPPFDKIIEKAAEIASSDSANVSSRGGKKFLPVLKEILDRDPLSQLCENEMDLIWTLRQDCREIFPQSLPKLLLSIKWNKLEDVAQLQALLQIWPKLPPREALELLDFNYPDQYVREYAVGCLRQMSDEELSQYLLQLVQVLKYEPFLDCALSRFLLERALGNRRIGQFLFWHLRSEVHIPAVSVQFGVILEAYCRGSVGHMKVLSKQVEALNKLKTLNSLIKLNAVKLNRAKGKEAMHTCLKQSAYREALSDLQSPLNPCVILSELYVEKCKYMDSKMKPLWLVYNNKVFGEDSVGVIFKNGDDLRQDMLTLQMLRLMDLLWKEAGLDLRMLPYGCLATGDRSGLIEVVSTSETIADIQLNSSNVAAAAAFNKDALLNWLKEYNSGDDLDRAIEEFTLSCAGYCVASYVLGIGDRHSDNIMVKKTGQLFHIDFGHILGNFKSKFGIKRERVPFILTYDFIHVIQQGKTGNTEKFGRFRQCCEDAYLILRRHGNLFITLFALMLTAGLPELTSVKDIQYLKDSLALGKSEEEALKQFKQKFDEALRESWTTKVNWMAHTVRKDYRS
T2 sequence (P27986 whole entry partner): as the sequence (P27986 whole entry partner) above

Structure (SMILES)	IC50 (PI3K p110α [2])	IC50 (PI3K p110β [3])	IC50 (PI3K p110γ [4])	IC50 (PI3K p110δ [5])	Ki (PI3K p110α [6])	Ki (PI3K p110β [7])	Ki (PI3K p110γ [8])	Ki (PI3K p110δ [9])	also measured
c1cc(-c2nc(N3CCOCC3)c3oc4ncc(CN5CCCCC5)cc4c3n2)c2cc[nH]c2c1	–	–	–	–	–	–	–	–	AUClast [1, 12]: 1245 ng·mL·h; clearance [1, 12]: 66.1 mL/min/kg; bioavailability ([1]; plasma, PO 10 mg/kg vs IV 5 mg/kg, male CD1 mouse): 27.8%
O=S1(=O)CCCN(Cc2cnc3oc4c(N5CCOCC5)nc(-c5cccc6[nH]ccc56)nc4c3c2)CC1 [Example AA, 4-{[4-(1H-indol-4-yl)-6-(morpholin-4-yl)-8-oxa-3,5,10-triazatricyclo[7.4.0.0^2,^7]trideca-1(13),2(7),3,5,9,11-hexaen-12-yl]methyl}-1λ^6,4-thiazepane-1,1-dione]	≤ 500 nM	≤ 500 nM	500 to 1000 nM	≤ 500 nM	–	–	–	–	–
O=S1(=O)CC2(CN(Cc3cnc4oc5c(N6CCOCC6)nc(-c6cccc7[nH]ccc67)nc5c4c3)C2)C1 [Example AB, 6-{[4-(1H-Indol-4-yl)-6-(morpholin-4-yl)-8-oxa-3,5,10-triazatricyclo[7.4.0.0^2^,7]trideca-1(13),2(7),3,5,9,11-hexaen-12-yl]methyl}-2λ^6-thia-6-azaspiro[3.3]heptane-2,2-dione]	≤ 500 nM	≤ 500 nM	500 to 1000 nM	≤ 500 nM	–	–	–	–	–
c1cc(-c2nc(N3CCOCC3)c3oc4ncc(CN5CCSC5)cc4c3n2)c2cc[nH]c2c1 [Example AC, 4-(1H-Indol-4-yl)-6-(morpholin-4-yl)-12-[(1,3-thiazolidin-3-yl)methyl]-8-oxa-3,5,10-triazatricyclo[7.4.0.0^2^,7]trideca-1(13),2(7),3,5,9,11-hexaene]	≤ 500 nM	≤ 500 nM	≤ 500 nM	≤ 500 nM	–	–	–	–	–
CS(=O)(=O)CCNCc1cnc2oc3c(N4CCOCC4)nc(-c4cccc5[nH]ccc45)nc3c2c1 [Example AD, {[4-(1H-Indol-4-yl)-6-(morpholin-4-yl)-8-oxa-3,5,10-triazatricyclo[7.4.0.0^2^,7]trideca-1(13),2(7),3,5,9,11-hexaen-12-yl]methyl}(2-methanesulfonylethyl)amine]	≤ 500 nM	≤ 500 nM	≤ 500 nM	≤ 500 nM	–	–	–	–	–
CCS(=O)(=O)CCN(C)Cc1cnc2oc3c(N4CCOCC4)nc(-c4cccc5[nH]ccc45)nc3c2c1 [Example AE]	≤ 500 nM	≤ 500 nM	≤ 500 nM	≤ 500 nM	–	–	–	–	–
[O-][S+]1CCN(Cc2cnc3oc4c(N5CCOCC5)nc(-c5c(Cl)ccc6c5CCN6)nc4c3c2)CC1 [Example U, 4-{[4-(5-Chloro-2,3-dihydro-1H-indol-4-yl)-6-(morpholin-4-yl)-8-oxa-3,5,10-triazatricyclo[7.4.0.0^2,7]trideca-1(9),2,4,6,10,12-hexaen-12-yl]methyl}-1λ^4-thiomorpholin-1-one]	–	–	–	–	> 10000 nM	1000 to 10000 nM	> 10000 nM	≤ 500 nM	–
Cc1ccc2c(c1-c1nc(N3CCOCC3)c3oc4ncc(CN5CC[S+]([O-])CC5)cc4c3n1)CCN2 [Example V, 4-{[4-(5-Methyl-2,3-dihydro-1H-indol-4-yl)-6-(morpholin-4-yl)-8-oxa-3,5,10-triazatricyclo[7.4.0.0^2,7]trideca-1(9),2,4,6,10,12-hexaen-12-yl]methyl}-1λ^4-thiomorpholin-1-one]	–	–	–	–	> 10000 nM	1000 to 10000 nM	> 10000 nM	≤ 500 nM	–
c1cc(-c2nc(N3CCOCC3)c3oc4ncc(CN5CCOCC5)cc4c3n2)c2cc[nH]c2c1 [compound K in WO 2011/021038]	–	–	–	–	–	–	–	–	AUC(0-inf) [11, 13]: 2690 ng·h/mL; AUClast [11, 13]: 2654.15 ng·mL·h; Cmax [11, 13]: 2980 ng/mL; clearance [11, 13]: 18.6 mL/min/kg; half-life [11, 13]: 79.8 min; Vd [11, 14]: 1.81 L/kg; F [11]: 55%; F ([11]; listed as Example K from W02011/021038 (comparative)): 50%; AUC(0-inf) [11, 15]: 5140 ng·h/mL; AUC(0-t) [11, 15]: 4890 ng·h/mL; Cmax [11, 15]: 1720 ng/mL; Tmax [11, 15]: 15 min

Now from value to compound, other results behind:

IC50 (PI3K p110α [2])	IC50 (PI3K p110β [3])	IC50 (PI3K p110γ [4])	IC50 (PI3K p110δ [5])	Ki (PI3K p110α [6])	Ki (PI3K p110β [7])	Ki (PI3K p110γ [8])	Ki (PI3K p110δ [9])	Structure (SMILES)	also measured
≤ 500 nM	≤ 500 nM	500 to 1000 nM	≤ 500 nM	–	–	–	–	c1cc(-c2nc(N3CCOCC3)c3oc4ncc(CN5CCSCC5)cc4c3n2)c2cc[nH]c2c1 [Example AF, 4-(1H-indol-4-yl)-6-(morpholin-4-yl)-12-[(thiomorpholin-4-yl)methyl]-8-oxa-3,5,10-triazatricyclo[7.4.0.0^2^,7]trideca-1(13),2(7),3,5,9,11-hexaene]	–
–	–	–	–	500 to 1000 nM	≤ 500 nM	1000 to 10000 nM	≤ 500 nM	[O-][S+]1CCN(Cc2cnc3oc4c(N5CCOCC5)nc(-c5cccc6[nH]ccc56)nc4c3c2)CC1 [Example B, 4-{[4-(1H-Indol-4-yl)-6-(morpholin-4-yl)-8-oxa-3,5,10-triazatricyclo[7.4.0.0^2,7]trideca-1(13),2(7),3,5,9,11-hexaen-12-yl]methyl}-1λ^4-thiomorpholin-1-one]	AUC(0-inf) [10, 13]: 2940 ng·h/mL; AUClast [10, 13]: 2802.91 ng·mL·h; Cmax [10, 13]: 5320 ng/mL; clearance [10, 13]: 17 mL/min/kg; half-life [10, 13]: 206 min; Vd [10, 14]: 1.44 L/kg; AUC(0-inf) [10, 15]: 7700 ng·h/mL; AUC(0-t) [10, 15]: 7690 ng·h/mL; Cmax [10, 15]: 3830 ng/mL; Tmax [10, 15]: 30 min; bioavailability ([10]; plasma, PO 10 mg/kg vs IV 3 mg/kg, male Balb/c mouse): 82%
–	–	–	–	> 10000 nM	> 10000 nM	> 10000 nM	> 10000 nM	N#Cc1cc(-c2nc(N3CCOCC3)c3oc4ncc(CN5CC[S+]([O-])CC5)cc4c3n2)c2cc[nH]c2c1 [Example R, 4-[6-(morpholin-4-yl)-12-[(1-oxo-1λ^4-thiomorpholin-4-yl)methyl]-8-oxa-3,5,10-triazatricyclo[7.4.0.0^2,^7]trideca-1(13),2(7),3,5,9,11-hexaen-4-yl]-1H-indole-6-carbonitrile]	–
–	–	–	–	1000 to 10000 nM	≤ 500 nM	> 10000 nM	≤ 500 nM	[O-][S+]1CCN(Cc2cnc3oc4c(N5CCOCC5)nc(-c5c(Cl)ccc6[nH]ccc56)nc4c3c2)CC1 [Example T, 4-{[4-(5-Chloro-1H-indol-4-yl)-6-(morpholin-4-yl)-8-oxa-3,5,10-triazatricyclo[7.4.0.0^2,7]trideca-1(9),2,4,6,10,12-hexaen-12-yl]methyl}-1λ^4-thiomorpholin-1-one]	–
–	–	–	–	≤ 500 nM	≤ 500 nM	> 10000 nM	≤ 500 nM	N#Cc1ccc2[nH]ccc2c1-c1nc(N2CCOCC2)c2oc3ncc(CN4CC[S+]([O-])CC4)cc3c2n1 [Example W, 4-[6-(morpholin-4-yl)-12-[(1-oxo-1λ^4-thiomorpholin-4-yl)methyl]-8-oxa-3,5,10-triazatricyclo[7.4.0.0^2,^7]trideca-1(9),2,4,6,10,12-hexaen-4-yl]-1H-indole-5-carbonitrile]	–
–	–	–	–	> 10000 nM	> 10000 nM	> 10000 nM	> 10000 nM	O=C(O)c1ccc2[nH]ccc2c1-c1nc(N2CCOCC2)c2oc3ncc(CN4CC[S+]([O-])CC4)cc3c2n1 [Example X, 4-[6-(morpholin-4-yl)-12-[(1-oxo-1λ^4-thiomorpholin-4-yl)methyl]-8-oxa-3,5,10-triazatricyclo[7.4.0.0^2,^7]trideca-1(13),2(7),3,5,9,11-hexaen-4-yl]-1H-indole-5-carboxylic acid]	–
–	–	–	–	500 to 1000 nM	≤ 500 nM	1000 to 10000 nM	≤ 500 nM	CC(C)Oc1ccc2[nH]ccc2c1-c1nc(N2CCOCC2)c2oc3ncc(CN4CC[S+]([O-])CC4)cc3c2n1 [Example Y, 4-{[6-(Morpholin-4-yl)-4-[5-(propan-2-yloxy)-1H-indol-4-yl]-8-oxa-3,5,10-triazatricyclo[7.4.0.0^2^,7]trideca-1(9),2,4,6,10,12-hexaen-12-yl]methyl}-1λ^4-thiomorpholin-1-one]	–
–	–	–	–	≤ 500 nM	≤ 500 nM	500 to 1000 nM	≤ 500 nM	[O-][S+]1CCN(Cc2cnc3oc4c(N5CCOCC5)nc(-c5c(OC(F)(F)F)ccc6[nH]ccc56)nc4c3c2)CC1 [Example Z, 4-{[6-(Morpholin-4-yl)-4-[5-(trifluoromethoxy)-1H-indol-4-yl]-8-oxa-3,5,10-triazatricyclo[7.4.0.0^2^,7]trideca-1(9),2,4,6,10,12-hexaen-12-yl]methyl}-1λ^4-thiomorpholin-1-one]	–
